The values below come from US20180230160A1, “2-AMINO-7A-PHENYL-3,4,4A,5,7,7A-HEXAHYDROFURO[3,4-B]PYRIDINES AS BACE1 INHIBITORS” (H. Lundbeck A/S, priority 2015, published 2018).

Series [1] has as its target T1, human BACE1 (Homo sapiens, UniProt P56817). Nature of the series: BACE1 binding assay (SPA-based radioligand binding). Set-up: biotin (biotinylated form); made in house; host or cells: Freestyle HEK293 cells. The conditions noted are these: pH 4.5, 10 nM radioligand, Ki=IC50/(1+L/Kd). As for the experimental part:
The binding assay was performed as SPA-based assay using a biotinylated form of human BACE1 recombinantly expressed and subsequently purified from Freestyle HEK293 cells. The binding assay was run in a 50 mM sodium acetate buffer, pH 4.5 containing 50 mM NaCl and 0.03% Tween-20 in white clear bottom 384 plates (Corning #3653). 10 nM (final concentration) radioligand ([^3H]—N-((1S,2R)-1-benzyl-3-cyclopropylamino-2-hydroxy-propyl)-5-(methanesulfonyl-methyl-amino)-N—((R)-1-phenyl-ethyl)-isophthalamide) (TRQ11569 purchased from GE Healthcare) was mixed with test compound at a given concentration, 6 nM (final concentration) human BACE1 and 25 μg Streptavidin coated PVT core SPA beads (RPNQ0007, GE Healthcare Life Sciences) in a total volume of 40 μl. Several concentrations of each test compound were tested in the assay for […] determination. The plates were incubated for one hour at room temperature and counted in a Wallac Trilux counter. Total and non-specific binding were determined using buffer and 1 μM (final concentration) of the high affinity BACE1 reference inhibitor (S)-6-[3-chloro-5-(5-prop-1-ynyl-pyridin-3-yl)-thiophen-2-yl]-2-imino-3,6-dimethyl-tetrahydro-pyrimidin-4-one, respectively. For each test compound, a 1050 value (the concentration mediating 50% inhibition of the specific binding of the radioligand) was determined from concentration-response curve and used to calculate the Ki from the equation Ki=IC50/(1+L/Kd), where L and Kd are the final concentration of the radioligand used in the assay and the dissociation constant of the radioligand, respectively. The Kd of the radioligand was determined from saturation binding experiments.

Another series deals with Aβ40 peptide. Nature of the series: Assessment of Aβ peptide levels in rat brain and plasma following BACE1 inhibition (Aβ40 ELISA). In kind it is in vivo. The conditions noted are these: 3 hours post dose, vs vehicle. As for the experimental part: Assessment of Aβ Peptide Levels in Rat Brain and Plasma Following BACE1 Inhibition. Animals.
(§1) Young adult Male Sprague Dawley rats of approximately 250 g weight were purchased from Charles River and received 0-30 mg/kg of vehicle (10% HP betaCD+1M MeSO4, pH 2.5) or test compounds (dissolved in vehicle) only by oral gavage (p.o). The compounds are dosed at a volume of 5 ml/kg. Cohorts of 5-10 animals were established for each treatment condition.
(§2) At T=180 minutes after initial dosing the animals were stunned and decapitated with a guillotine. Trunk-blood was sampled in EDTA coated tubes after decapitation of the animal. The blood was centrifuged at 2200G at 4° C. for 15 minutes and the plasma was collected and frozen at −80° C. The blood was aliquoted for Aβ ELISA and DMPK analysis. Immediately following sacrifice, the brain was extracted and split into 2 halves. The right hemibrains were snap frozen on dry ice and stored at −80° C. The left half was dissected; with the front forebrain taken for Aβ ELISA and the remainder used for DMPK analysis. These samples were also snap frozen on dry ice and stored at −80° C. until use for analysis.
The cortex samples were thawed slightly on wet ice before they were homogenized with a small volume dispersing instrument (T10 basic ULTRA-TURRAX®) which was set at speed 5 for approximately 5-7 sec. The tissue was processed in a 10 times volume of the weight, for example 100 mg of tissue was homogenized in 1000 μL of Homogenization buffer. Homogenization buffer: 50 ml Milli Q water+50 nM NaCl+0.2% Diethylamin (DEA)+1 tablet of Complete Protease inhibitor cocktail+1 nM 4-(2-aminoethyl) benzenesulfonyl fluoride hydrochloride irreversible serine protease inhibitor (AEBSF).
After homogenization 450 μL aliquots of the samples are collected into a 1.5 ml Eppendorf tube and placed on wet ice, 0.5% NP-40 (50 ul) was added to all samples and then they were incubated on ice for 30 min. After which all samples were sonicated using an Ultrasonic homogenizer with 20 kHz homogeneous sound (SONOPLUS HD2070, Bandelin Electronic) 10 pulse set at 12-13% power to extract all the Aβ species. The samples were then centrifuged (Ole Dich 157 MPRF Micro centrifuge) at 20000G for 20 minutes at 4° C. After centrifugation 285 μL of the supernatant was pipetted into 600 μL microtubes tubes and neutralized with 15 μL of 1M Tris-HCL buffer.
WAKO 294-62501 Human/Rat Abeta amyloid (40) kit was used for all ELISA analyses. 30 μL plasma samples or 30 μL of the cortex supernatants generated as described above were placed in 600 μL microtubes tubes on wet ice. To this 30 μL of 8M urea (AppliChem A1049, 9025) was added to generate a 2-fold dilution. Both plasma and cortex supernatants were incubated on ice for 30 min. Standard rows were prepared from the standard peptide stock provided in the kit and standard diluent containing 1.6M urea (200 μL 8M urea+800 μL of standard diluent) and 0.8M urea (400 μL 8M Urea+3600 μL Standard diluent). A serial 2-fold dilution of Aβ40 from 100 pmol/ml to 0 pmol/L was prepared for the assay.
After incubation with urea, all samples were further diluted by addition of 5 times standard diluent from the Kit. This was done by adding 240 μL Standard Diluent to 60 μL sample/urea mixture, which was then mixed well. 100 μL of each diluted sample was pipetted into designated wells of the ELISA plate in duplicates. The plate was then covered and incubated overnight at 4° C. The following day, the ELISA kit was brought to room temperature before use. The incubated plate was washed 5 times with the 20× washing solution diluted in Milli Q water. 100 μL HRP-conjugate was applied to each well, and the plate was covered and incubates at 4° C. for 1 hr. The wash was repeated again for 5 times. 100 μL 3,3′,5,5′-Tetramethylbenzidine (TMB) solution was applied to each well and the plate was covered and incubated in the dark at room temperature for 30 minutes. […]
(In general: An ELISA detects its analyte on a solid surface through an enzyme-linked reagent.)

The subject of the next series is P-gp (MDR1). Kind of series: MDCK-MDR1 assay (permeability, efflux ratio). The conditions noted are these: dog, Papp BA/Papp AB, 60-minute incubation. In kind it is in vitro ADME. As for the experimental part:
The permeability of the test compounds was assessed in MDCK-MDR1 cells that were cultured to confluency (4-6 days) in a 96 transwell plate. Test compounds were diluted with the transport buffer (HBSS+1% BSA) to a concentration of 0.5 μM and applied to the apical or basolateral side of the cell monolayer. Permeation of the test compounds from A to B direction or B to A direction was determined in triplicate over a 60-minute incubation time at 37° C. and 5% CO2 with a relative humidity of 95%. Test compounds were quantified by LC-MS/MS analysis based on the peaks area ratios of analyte/IS in both the receiver and donor wells of the transwell plate. The apparent permeability coefficient Papp (cm/s) was calculated using the equation: […]
Where dCr/dt is the cumulative concentration of compound in the receiver chamber as a function of time (μM/s); Vr is the solution volume in the receiver chamber (0.05 mL on the apical side; 0.25 mL on the basolateral side); A is the surface area for the transport, i.e. 0.0804 cm^2 for the area of the monolayer; CO is the initial concentration in the donor chamber (μM).

Series [2] is described as follows: Compound exposure in rat brain and plasma after oral dosing (DMPK analysis). It counts as in vivo. The conditions noted are these: male, Sprague Dawley, 3 hours post dose; for concentration at 3 h: read-out: Exp (exposure); for Kp at 3 h: brain/plasma, read-out: Brain/Plasma ratio. As for the experimental part: as §1, §2
The results of the administration of representative Compounds of Examples 1, 2, 5, […], of brain and plasma samples collected at 3 hours post dose and then following exposures, as described above, are tabulated below.

Series [3] concerns the target T1, human BACE1. Nature of the series: BACE1 efficacy assay (FRET-based, commercial BACE1 kit). It counts as biochemical. Also noted: purchased Life Technologies P2985. The conditions noted are these: 10 μM test compound. As for the experimental part: The efficacy assay was performed as a FRET-based assay using a commercially available BACE1 kit (Life Technologies, P2985). 2 μl test compound at 10 μM (final concentration) and 15 μl BACE1 enzyme from the kit (final concentration 3 nM) were preincubated for 15 minutes at room temperature before addition of 15 μl of substrate from the kit (250 nM final concentration) and incubated for additional 90 minutes at room temperature. The assay plate was subsequently read in a Pherastar (Ex540/Em590). The enzyme activity observed in presence of test compound were normalized to the enzyme activity observed in presence of buffer and 10 μM (final concentration) of the high affinity BACE1 reference inhibitor (S)-6-[3-Chloro-5-(5-prop-1-ynyl-pyridin-3-yl)-thiophen-2-yl]-2-imino-3,6-dimethyl-tetrahydropyrimidin-4-one, respectively. The efficacy of the test compounds was evaluated at 10 μM (final concentration) and defined as the percent inhibition of the enzyme activity using the equation % inhibition=100%−normalized enzyme activity in percent.

Molecules are shown by their SMILES. pKi: −log10 of the molar value. Where two headings read alike, the source gives them in different places.

T1 sequence (P56817 46-501): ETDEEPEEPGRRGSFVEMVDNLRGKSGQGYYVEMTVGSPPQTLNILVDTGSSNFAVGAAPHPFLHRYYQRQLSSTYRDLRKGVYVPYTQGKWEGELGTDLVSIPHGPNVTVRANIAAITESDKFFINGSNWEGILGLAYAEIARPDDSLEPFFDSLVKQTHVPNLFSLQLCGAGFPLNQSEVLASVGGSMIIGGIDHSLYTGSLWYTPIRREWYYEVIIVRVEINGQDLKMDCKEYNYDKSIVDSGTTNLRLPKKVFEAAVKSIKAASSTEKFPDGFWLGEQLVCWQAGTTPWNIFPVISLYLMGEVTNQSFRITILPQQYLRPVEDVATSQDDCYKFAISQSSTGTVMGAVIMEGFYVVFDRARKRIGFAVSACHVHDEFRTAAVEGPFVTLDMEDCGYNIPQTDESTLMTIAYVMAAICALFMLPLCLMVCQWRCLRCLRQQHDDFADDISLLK

The term pKi denotes −log10 of the Ki, conventionally taken in molar units. Low values mean a high Ki, high ones a low Ki. For orientation: efflux ratio means a quotient of directional permeabilities that is used to spot active efflux. In turn, `C[C@]1(F)C[C@]2(F)COC[C@]2(c2cc(NC(=O)c3ccc(F)cn3)ccc2F)N=C1N` [Example 2, N-(3-((3S,4aR,7aS)-2-amino-3,4a-difluoro-3-methyl-3,4,4a,5,7,7a-hexahydrofuro[3,4-b]pyridin-7a-yl)-4-fluorophenyl)-5-fluoropicolinamide] gave a pKi on human BACE1 [1] of 7.51. The Aβ40 reduction in the series with Aβ40 peptide (Brain, 10 mg/kg p.o.) is reported as 25%; with Aβ40 peptide (Brain, 30 mg/kg p.o.), 24%; with Aβ40 peptide (Plasma, 10 mg/kg p.o.) it was 48%; with Aβ40 peptide (Plasma, 30 mg/kg p.o.) it was 47%. In addition, in the series with P-gp (MDR1), the efflux ratio at 60 min, 0.5 μM was 1.27. Moreover, the concentration at 3 h in series [2] (Brain, 10 mg/kg p.o.) is 37 ng/g; in series [2] (Brain, 30 mg/kg p.o.) it was 136 ng/g; in series [2] (Plasma, 10 mg/kg p.o.) it was 69 ng/g; in series [2] (Plasma, 30 mg/kg p.o.) it was 244 ng/g. For the same molecule, the Kp at 3 h was found to be 0.54 in series [2] (10 mg/kg p.o.) and 0.56 in series [2] (30 mg/kg p.o.).
As for `COc1cnc(C(=O)Nc2ccc(F)c([C@]34COC[C@@]3(F)C[C@](C)(F)C(N)=N4)c2)cn1` [Example 5, N-(3-((3S,4aR,7aS)-2-amino-3,4a-difluoro-3-methyl-3,4,4a,5,7,7a-hexahydrofuro[3,4-b]pyridin-7a-yl)-4-fluorophenyl)-5-methoxypyrazine-2-carboxamide], the pKi at human BACE1 [1] was 7.77. The Aβ40 reduction in the series with Aβ40 peptide (Brain, 10 mg/kg p.o.) stood at 40%; in the series on Aβ40 peptide (Brain, 30 mg/kg p.o.), 47%; in the series on Aβ40 peptide (Plasma, 10 mg/kg p.o.) it was 41%; in the series on Aβ40 peptide (Plasma, 30 mg/kg p.o.), 45%. Besides, the efflux ratio at 60 min, 0.5 μM in the series with P-gp (MDR1) is 0.91. Moreover, the concentration at 3 h in series [2] (Brain, 10 mg/kg p.o.) is 204 ng/g; in series [2] (Brain, 30 mg/kg p.o.), 695 ng/g; in series [2] (Plasma, 10 mg/kg p.o.), 174 ng/g; in series [2] (Plasma, 30 mg/kg p.o.) it was 598 ng/g. Besides, the figures for the Kp at 3 h in series [2] (10 mg/kg p.o.) and in series [2] (30 mg/kg p.o.) were 1.17 and 1.16, respectively.
As a reminder, the inhibition is the relative decrease from the control value, in per cent. Molecule `C[C@@]1(F)C[C@]2(F)COC[C@]2(c2cc(NC(=O)c3ccc(F)cn3)ccc2F)N=C1N` [Example 12, N-(3-((3R,4aR,7aS)-2-amino-3,4a-difluoro-3-methyl-3,4,4a,5,7,7a-hexahydrofuro[3,4-b]pyridin-7a-yl)-4-fluorophenyl)-5-fluoropicolinamide] gave a pKi at human BACE1 [1] of 7.62. Further, the efflux ratio at 60 min, 0.5 μM in the series on P-gp (MDR1) came out at 1.67. For the same molecule, the inhibition at 10 µM on human BACE1 [3] came out at 103%.
The like results for `COc1ccc(C(=O)Nc2ccc(F)c([C@]34COC[C@H]3C[C@](F)(CF)C(N)=N4)c2)nc1` [Example 15, N-(3-((3R,4aS,7aS)-2-amino-3-fluoro-3-(fluoromethyl)-3,4,4a,5-tetrahydrofuro[3,4-b]pyridin-7a-yl)-4-fluorophenyl)-5-methoxypicolinamide] were, in that order, 7.19, 1.19 and 111%.
On the same counts, the results for `NC1=N[C@@]2(c3cc(NC(=O)c4ccc(F)cn4)ccc3F)COC[C@H]2C[C@]1(F)CF` [Example 16, N-(3-((3R,4aS,7aS)-2-amino-3-fluoro-3-(fluoromethyl)-3,4,4a,5-tetrahydrofuro[3,4-b]pyridin-7a-yl)-4-fluorophenyl)-5-fluoropicolinamide] are 7.06, 0.97 and 110%.
The like results for `COc1ccc(C(=O)Nc2cc(F)c(F)c([C@]34COC[C@H]3C[C@](F)(CF)C(N)=N4)c2)nc1` [Example 17, N-[3-[(3R,4aS,7aS)-2-amino-3-fluoro-3-(fluoromethyl)-4,4a,5,7-tetrahydrofuro[3,4-b]pyridin-7a-yl]-4,5-difluoro-phenyl]-5-methoxy-pyridine-2-carboxamide] were, in that order, 7.00, 1.25 and 105%.
